Measurements from patent US20220363686A1 (AiCuris GmbH & Co. KG, priority 2018, published 2022).

Experiments:
[1] = Cell viability assay (AlamarBlue); settings: human, HepAD38 cells
[2] = target: HBV core protein (C-terminal truncated core protein containing 149 amino acids of the N-terminal assembly domain) (UniProt P03146); assay: Biochemical capsid assembly assay (fluorescence quenching); parameters: rows headed: Assembly Activity; other: BODIPY-FL labelled core protein, assembly started with NaCl, read after 6 min; settings: read-out: Assembly Activity; BODIPY-FL labelled core protein, assembly started with NaCl, read after 6 min
HBV core protein (C-terminal truncated core protein containing 149 amino acids of the N-terminal assembly domain), sequence (P03146 whole entry, the tested form may be a part): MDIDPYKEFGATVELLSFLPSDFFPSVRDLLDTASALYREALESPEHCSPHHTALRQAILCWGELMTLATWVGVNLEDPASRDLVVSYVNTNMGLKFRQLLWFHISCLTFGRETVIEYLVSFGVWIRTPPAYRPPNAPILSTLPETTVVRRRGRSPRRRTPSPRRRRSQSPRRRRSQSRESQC
Method: The screening for assembly effector activity was done based on a fluorescence quenching assay published by Zotnick et al. (2007). The C-terminal truncated core protein containing 149 amino acids of the N-terminal assembly domain fused to a unique cysteine residue at position 150 and was expressed in E. coli using the pET expression system (Merck Chemicals, Darmstadt). Purification of core dimer protein was performed using a sequence of size exclusion chromatography steps. In brief, the cell pellet from 1 L BL21 (DE3) Rosetta2 culture expressing the coding sequence of core protein cloned NdeI/XhoI into expression plasmid pET21b was treated for 1 h on ice with a native lysis buffer (Qproteome Bacterial Protein Prep Kit; Qiagen, Hilden). After a centrifugation step the supernatant was precipitated during 2 h stirring on ice with 0.23 g/ml of solid ammonium sulfate. Following further centrifugation the resulting pellet was resolved in buffer A (100 mM Tris, pH 7.5; 100 mM NaCl; 2 mM DTT) and was subsequently loaded onto a buffer A equilibrated CaptoCore 700 column (GE HealthCare, Frankfurt). The column flow through containing the assembled HBV capsid was dialyzed against buffer N (50 mM NaHCO3 pH 9.6; 5 mM DTT) before urea was added to a final concentration of 3M to dissociate the capsid into core dimers for 1.5 h on ice. The protein solution was then loaded onto a IL Sephacryl S300 column. After elution with buffer N core dimer containing fractions were identified by SDS-PAGE and subsequently pooled and dialyzed against 50 mM HEPES pH 7.5; 5 mM DTT. To improve the assembly capacity of the purified core dimers a second round of assembly and disassembly starting with the addition of 5 M NaCl and including the size exclusion chromatography steps described above was performed. From the last chromatography step core dimer containing fractions were pooled and stored in aliquots at concentrations between 1.5 to 2.0 mg/ml at −80° C.
Immediately before labelling the core protein was reduced by adding freshly prepared DTT in a final concentration of 20 mM. After 40 min incubation on ice storage buffer and DTT was removed using a Sephadex G-25 column (GE HealthCare, Frankfurt) and 50 mM HEPES, pH 7.5. For labelling 1.6 mg/ml core protein was incubated at 4° C. and darkness overnight with BODIPY-FL maleimide (Invitrogen, Karlsruhe) in a final concentration of 1 mM. After labelling the free dye was removed by an additional desalting step using a Sephadex G-25 column. Labelled core dimers were stored in aliquots at 4° C. In the dimeric state the fluorescence signal of the labelled core protein is high and is quenched during the assembly of the core dimers to high molecular capsid structures. The screening assay was performed in black 384 well microtiter plates in a total assay volume of 10 μl using 50 mM HEPES pH 7.5 and 1.0 to 2.0 μM labelled core protein. Each screening compound was added in 8 different concentrations using a 0.5 log-unit serial dilution starting at a final concentration of 100 μM, 31.6 μM or 10 μM, In any case the DMSO concentration over the entire microtiter plate was 0.5%. The assembly reaction was started by the injection of NaCl to a final concentration of […] which induces the assembly process to approximately 25% of the maximal quenched signal. 6 min after starting the reaction the fluorescence signal was measured using a Clariostar plate reader (BMG Labtech, Ortenberg) with an excitation of 477 nm and an emission of 525 nm. As 100% and 0% assembly control HEPES buffer containing 2.5 M and 0 M NaCl was used. Experiments were performed thrice in triplicates. EC50 values were calculated by non-linear regression analysis using the Graph Pad Prism 6 software (GraphPad Software, La Jolla, USA).

[3] = test system: HBV; assay: Determination of HBV DNA from the supernatants of HepAD38 cells (anti-HBV activity); type: cell-based, hepatitis B virus; settings: Hepatitis B virus, HePAD38, 144 h, HBV DNA in HepAD38 supernatant, day 6, qPCR; read-out: Cell Activity
Method: The anti-HBV activity was analysed in the stable transfected cell line HepAD38, which has been described to secrete high levels of HBV virion particles (Ladner et al., 1997). In brief, HepAD38 cells were cultured at 37° C. at 5% CO2 and 95% humidity in 200 μl maintenance medium, which was Dulbecco's modified Eagle's medium/Nutrient Mixture F-12 (Gibco, Karlsruhe), 10% fetal bovine serum (PAN Biotech Aidenbach) supplemented with 50 μg/ml penicillin/streptomycin (Gibco, Karlsruhe), 2 mM L-glutamine (PAN Biotech, Aidenbach), 400 μg/ml G418 (AppliChem, Darmstadt) and 0.3 μg/ml tetracycline. Cells were subcultured once a week in a 1:5 ratio, but were usually not passaged more than ten times. For the assay 60,000 cells were seeded in maintenance medium without any tetracycline into each well of a 96-well plate and treated with serial half-log dilutions of test compound. To minimize edge effects the outer 36 wells of the plate were not used but were filled with assay medium. On each assay plate six wells for the virus control (untreated HepAD38 cells) and six wells for the cell control (HepAD38 cells treated with 0.3 μg/ml tetracycline) were allocated, respectively. In addition, one plate set with reference inhibitors like BAY 41-4109, entecavir, and lamivudine instead of screening compounds were prepared in each experiment. In general, experiments were performed thrice in triplicates. At day 6 HBV DNA from 100 μl filtrated cell culture supernatant (AcroPrep Advance 96 Filter Plate, […] Supor membran, PALL GmbH, Dreieich) was automatically purified on the MagNa Pure LC instrument using the MagNA Pure 96 DNA and Viral NA Small Volume Kit (Roche Diagnostics, Mannheim) according to the instructions of the manufacturer. EC50 values were calculated from relative copy numbers of HBV DNA In brief, 5 μl of the 100 μl eluate containing HBV DNA were subjected to PCR LC480 Probes Master Kit (Roche) together with 1 μM antisense primer […], 0.5 μM sense primer […], 0.3 μM hybprobes […]-FL and LC640-[…]-PH (TIBMolBiol, Berlin) to a final volume of 12.5 μl. The PCR was performed on the Light Cycler 480 real time system (Roche Diagnostics, Mannheim) using the following protocol: Pre-incubation for 1 min at 95° C., amplification: 40 cycles×(10 sec at 95° C., 50 sec at 60° C., 1 sec at 70° C.), cooling for 10 sec at 40° C. Viral load was quantitated against known standards using HBV plasmid DNA of pCH-9/3091 (Nassal et al., 1990, Cell 63: 1357-1363) and the LightCycler 480 SW 1.5 software (Roche Diagnostics, Mannheim) and ECso values were calculated using non-linear regression with GraphPad Prism 6 (GraphPad Software Inc., La Jolla, USA).

Structure (SMILES) | CC50 at 6 days [1] [µM] | IC50 [2] [µM] | EC50 [3] [nM]
CN(C(=O)c1cnn2c1CN(C(=O)c1cc3c(Cl)cc(F)cc3[nH]1)CC2)C1(COC(F)F)CC1 [Example 25, 5-(4-chloro-6-fluoro-1H-indole-2-carbonyl)-N-{1-[(difluoromethoxy)methyl]cyclopropyl}-N-methyl-4H,5H,6H,7H-pyrazolo[1,5-a]pyrazine-3-carboxamide] | > 10 | < 5 | < 1000
NS(=O)(=O)c1cnn2c1CN(C(=O)c1cc3ccccc3[nH]1)CC2 [Example 26, 5-(1H-indole-2-carbonyl)-4H,5H,6H,7H-pyrazolo[1,5-a]pyrazine-3-sulfonamide] | > 10 | < 5 | < 1000
O=C(c1cc2ccccc2[nH]1)N1CCn2ncc(S(=O)(=O)NCC3(O)CCC3)c2C1 [Example 27, N-[(1-hydroxycyclobutyl)methyl]-5-(1H-indole-2-carbonyl)-4H,5H,6H,7H-pyrazolo[1,5-a]pyrazine-3-sulfonamide] | > 10 | 5 to 10 | 1000 to 10000
CC(NS(=O)(=O)c1cnn2c1CN(C(=O)c1cc3ccccc3[nH]1)CC2)C(F)(F)F (stereo not drawn) [Example 28, 5-(1H-indole-2-carbonyl)-N-(1,1,1-trifluoropropan-2-yl)-4H,5H,6H,7H-pyrazolo[1,5-a]pyrazine-3-sulfonamide] | > 10 | < 5 | 1000 to 10000
O=C(c1cc2ccccc2[nH]1)N1CCn2ncc(S(=O)(=O)NCCO)c2C1 [Example 29, N-(2-hydroxyethyl)-5-(1H-indole-2-carbonyl)-4H,5H,6H,7H-pyrazolo[1,5-a]pyrazine-3-sulfonamide] | > 10 | < 5 | < 1000
O=C(c1cc2ccccc2[nH]1)N1CCn2ncc(S(=O)(=O)NC3CCOC3)c2C1 (stereo not drawn) [Example 30, 5-(1H-indole-2-carbonyl)-N-(oxolan-3-yl)-4H,5H,6H,7H-pyrazolo[1,5-a]pyrazine-3-sulfonamide] | > 10 | < 5 | < 1000
CN(CCO)S(=O)(=O)c1cnn2c1CN(C(=O)c1cc3ccccc3[nH]1)CC2 [Example 31, N-(2-hydroxyethyl)-5-(1H-indole-2-carbonyl)-N-methyl-4H,5H,6H,7H-pyrazolo[1,5-a]pyrazine-3-sulfonamide] | > 10 | < 5 | < 1000
COCC1(N(C)S(=O)(=O)c2cnn3c2CN(C(=O)c2cc4ccccc4[nH]2)CC3)CC1 [Example 32, 5-(1H-indole-2-carbonyl)-N-[1-(methoxymethyl)cyclopropyl]-N-methyl-4H,5H,6H,7H-pyrazolo[1,5-a]pyrazine-3-sulfonamide] | > 10 | < 5 | < 1000
O=C(c1cc2ccccc2[nH]1)N1CCn2ncc(S(=O)(=O)NCC3CCOC3)c2C1 (stereo not drawn) [Example 33, 5-(1H-indole-2-carbonyl)-N-[(oxolan-3-yl)methyl]-4H,5H,6H,7H-pyrazolo[1,5-a]pyrazine-3-sulfonamide] | > 10 | 5 to 10 | 1000 to 10000
O=C(c1cc2ccccc2[nH]1)N1CCn2ncc(S(=O)(=O)N3CCC(O)CC3)c2C1 [Example 35, 1-{[5-(1H-indole-2-carbonyl)-4H,5H,6H,7H-pyrazolo[1,5-a]pyrazin-3-yl]sulfonyl}piperidin-4-ol] | > 10 | < 5 | < 1000
CN1CCN(S(=O)(=O)c2cnn3c2CN(C(=O)c2cc4ccccc4[nH]2)CC3)CC1 [Example 36, 2-{3-[(4-methylpiperazin-1-yl)sulfonyl]-4H,5H,6H,7H-pyrazolo[1,5-a]pyrazine-5-carbonyl}-1H-indole] | > 10 | 5 to 10 | < 1000
CC(C)NS(=O)(=O)c1cnn2c1CN(C(=O)c1cc3ccccc3[nH]1)CC2 [Example 37, 5-(1H-indole-2-carbonyl)-N-(propan-2-yl)-4H,5H,6H,7H-pyrazolo[1,5-a]pyrazine-3-sulfonamide] | > 10 | < 5 | < 1000
O=C(c1cc2ccccc2[nH]1)N1CCn2ncc(S(=O)(=O)N3CCOCC3)c2C1 [Example 38, 2-[3-(morpholine-4-sulfonyl)-4H,5H,6H,7H-pyrazolo[1,5-a]pyrazine-5-carbonyl]-1H-indole] | > 10 | < 5 | < 1000
O=C(c1cc2ccccc2[nH]1)N1CCn2ncc(S(=O)(=O)N3CCCC3)c2C1 [Example 39, 2-[3-(pyrrolidine-1-sulfonyl)-4H,5H,6H,7H-pyrazolo[1,5-a]pyrazine-5-carbonyl]-1H-indole] | > 10 | < 5 | < 1000
CN(C)S(=O)(=O)c1cnn2c1CN(C(=O)c1cc3ccccc3[nH]1)CC2 [Example 40, 5-(1H-indole-2-carbonyl)-N,N-dimethyl-4H,5H,6H,7H-pyrazolo[1,5-a]pyrazine-3-sulfonamide] | > 10 | < 5 | < 1000
CNS(=O)(=O)c1cnn2c1CN(C(=O)c1cc3ccccc3[nH]1)CC2 [Example 41, 5-(1H-indole-2-carbonyl)-N-methyl-4H,5H,6H,7H-pyrazolo[1,5-a]pyrazine-3-sulfonamide] | > 10 | < 5 | < 1000
